5 compounds from PubChem BioAssay AID540265 (Sanford-Burnham Center for Chemical Genomics, 2011) can be followed below.

Activity calls are given as the source filed them. The rule behind the calls is not given here.

The test concerns the target Intestinal-type alkaline phosphatase (Homo sapiens) (UniProt P09923). The test can be described thus: inhibition of intestinal alkaline phosphatase activity – biochemical, luminescence, set 2, SAR follow-up (AID 540265). The settings on record: purified human IAP, luminescent substrate read-out.

Sequence of Intestinal-type alkaline phosphatase (Homo sapiens) (P09923 whole entry, looked up): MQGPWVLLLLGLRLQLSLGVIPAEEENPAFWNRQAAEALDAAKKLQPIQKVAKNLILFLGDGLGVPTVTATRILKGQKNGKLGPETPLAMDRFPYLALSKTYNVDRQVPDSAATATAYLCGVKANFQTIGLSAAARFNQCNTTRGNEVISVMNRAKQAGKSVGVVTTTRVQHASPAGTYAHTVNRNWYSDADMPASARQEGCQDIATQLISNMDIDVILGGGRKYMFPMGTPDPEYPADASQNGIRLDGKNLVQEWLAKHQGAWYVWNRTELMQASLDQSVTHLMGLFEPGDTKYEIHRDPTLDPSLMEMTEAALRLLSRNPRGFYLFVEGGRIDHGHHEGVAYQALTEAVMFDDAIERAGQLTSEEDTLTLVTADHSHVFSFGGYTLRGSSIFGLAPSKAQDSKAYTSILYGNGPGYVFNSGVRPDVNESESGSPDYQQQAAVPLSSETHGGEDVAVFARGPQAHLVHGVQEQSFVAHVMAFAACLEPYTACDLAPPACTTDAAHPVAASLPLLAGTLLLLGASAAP

Regarding `Cc1ccc(C)c(NC(=O)CCNS(=O)(=O)c2ccc3[nH]c(=O)oc3c2)c1`, the IC50 (as a rule, the concentration at which inhibition is half-maximal) was > 100 µM (inactive).

In the case of `O=C(CNS(=O)(=O)c1ccc2[nH]c(=O)oc2c1)NCc1ccc2c(c1)OCO2`, the IC50 is > 100 µM (inactive).

For `COc1ccc(NC(=O)CNS(=O)(=O)c2ccc3[nH]c(=O)oc3c2)cc1OC`, the IC50 is > 100 µM (inactive).

As for `N#Cc1ccc(CNC(=O)CCNS(=O)(=O)c2ccc3[nH]c(=O)oc3c2)cc1`, the IC50 is > 100 µM (inactive).

Turning to `O=C(CNS(=O)(=O)c1ccc2[nH]c(=O)oc2c1)Nc1ccc2c(c1)OCO2`, the IC50 is > 100 µM (inactive).
